Measurements as given in US8697911B2, “Rho kinase inhibitors” (Boehringer Ingelheim International GmbH, priority 2010, dated 2014).

What was measured:
ROCKII (1-543) [1] = molecular target: T1, ROCKII (1-543) (Homo sapiens (Human), UniProt O75116); assay: Luciferin-Luciferase Assay (Assay 1); format: biochemical; details: luciferin-luciferase residual ATP; 750 nM ATP, 7.5 nM kinase
Description: 1. Luciferin-Luciferase Assay
The activity of ROCKII (1-543) kinase is measured utilizing Cambrex PKLight ATP Detection Reagent, a homogeneous assay technology using luciferin-luciferase to quantify residual ATP. The assay is performed in 384-well low-volume, white, non-binding surface microtiter plates (Corning). The assay buffer is 25 mM HEPES, pH 7.5, 10 mM MgCl2, 50 mM KCl, 0.2% BSA, 0.01% CHAPS, 100 μM Na3VO4 and 0.5 mM DTT. Test compounds, dissolved in neat DMSO at 500 μg/mL, are serially diluted for dose response for a final starting concentration of 3 μg/mL in 1% DMSO of assay buffer. ROCKII (1-543) (62,408 Da) is diluted in assay buffer to a final concentration of 7.5 nM in a total volume of 15 μL. Positive controls are reaction mixtures containing no test compound; negative controls (blanks) are reaction mixtures containing no kinase. After 15 minutes of pre-incubation of the test compounds with the kinase, a mixture of ATP and peptide substrate ([…]) in assay buffer is added to each well for a final concentration of 750 nM ATP and 500 nM peptide, respectively. After 90 minutes of incubation of the kinase reaction at 28° C. temperature, 10 μL of PKLight ATP Detection Reagent (warmed to room temperature previously) is added to each well. The assay plate is incubated at room temperature for additional 15 minutes and then read on an Analyst in luminescence mode. Dose-response experiments for each of the test compounds are conducted in quadruplet. IC50 values of test compounds represent 50% response of the positive control from the dose-response curve.
Target sequence in this assay (O75116 1-543): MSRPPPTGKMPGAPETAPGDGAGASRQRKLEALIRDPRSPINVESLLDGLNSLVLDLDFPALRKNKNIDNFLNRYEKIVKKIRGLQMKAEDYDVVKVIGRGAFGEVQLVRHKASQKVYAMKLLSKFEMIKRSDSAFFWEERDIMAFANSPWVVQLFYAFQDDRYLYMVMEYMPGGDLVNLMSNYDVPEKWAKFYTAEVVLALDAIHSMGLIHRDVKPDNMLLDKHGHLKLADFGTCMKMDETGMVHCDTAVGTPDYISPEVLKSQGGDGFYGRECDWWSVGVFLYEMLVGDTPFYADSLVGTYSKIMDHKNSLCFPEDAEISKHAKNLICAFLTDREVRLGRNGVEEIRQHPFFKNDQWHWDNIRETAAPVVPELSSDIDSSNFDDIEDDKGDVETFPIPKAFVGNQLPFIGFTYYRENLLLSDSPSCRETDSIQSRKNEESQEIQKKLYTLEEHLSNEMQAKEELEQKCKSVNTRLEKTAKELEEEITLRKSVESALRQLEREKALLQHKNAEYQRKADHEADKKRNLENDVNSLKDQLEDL

ROCKII (1-543) [2] = molecular target: T1, ROCKII (1-543); assay: IMAP Assay (Assay 2); format: biochemical; details: IMAP fluorescence polarization; 100 μM ATP, 1 nM kinase
Description: This assay is performed using FAM S6 substrate peptide (Catalogue #R7184) and IMAP FP Screening Express Kit detection reagents from Molecular Devices (Sunnyvale, Calif.) in IMAP kinase reaction buffer (Tris-HCl, pH 7.2, 10 mM MgCl2, 0.05% NaN3, 0.1% phosphate-free BSA) containing 1 mM DTT. Test compounds dissolved in neat DMSO at 0.3 mg/mL are serially diluted 1 to 3 for concentration response in 100% DMSO. The DMSO serial dilutions are further diluted 33.33-fold in kinase reaction buffer, and 10 μL of this buffer dilution is transferred to Corning black 96-well half area NBS plates for a final top concentration of 3 μg/mL in 1% DMSO. 10 μL aliquot of 3 nM ROCKII (1-543) diluted in kinase reaction buffer is added to each assay well for a final concentration of 1 nM kinase. 10 μL of a mixture of 600 nM FAM S6 peptide and 300 μM ATP diluted in kinase reaction buffer is added to each well for a final concentration of 200 nM peptide and 100 μM ATP. The kinase reaction mixture is incubated for 60 minutes at room temperature. Positive controls are reaction mixtures containing no test compound and negative controls (blanks) are reaction mixtures containing no kinase. The kinase reaction is stopped by addition of 60 μL IMAP progressive binding reagent (Catalog #R7284) diluted 400-fold in 1× Binding buffer A. After 30 min of incubation at room temperature, the plates are read for fluorescence polarization on Analyst Plate Reader using Ex 485 nm, Em 530 nm, and FL 505 dichroic minor. The mP signals are converted to percent of control (POC) values using the formula: POC=100*(Signal−BCTRL)÷(PCTRL−BCTRL)
Where Signal is the test well signal, BCTRL is the average of background (negative control) well signals on the plate and PCTRL is the average of positive control well signals on the plate. For the concentration-responsive compounds, POC as a function of test compound concentration is fitted to a 4-parameter logistic equation of the form: Y=A+(B−A)/[1+(x/C)D]
Where A, B, C, and D are fitted parameters (parameter B is fixed at zero POC), and x and y are the independent and dependent variables, respectively. The IC50 is determined as the inflection point parameter, C.
Target sequence in this assay (O75116 1-543, species assumed): as the sequence (O75116 1-543) above

Structure (SMILES)	IC50 (ROCKII (1-543) [1]) [nM]	IC50 (ROCKII (1-543) [2]) [nM]
CN1CCc2nc(NC(=O)c3cccc(CNC(=O)c4cccc(-c5cccnc5)c4)c3)sc2C1 [compound 4]	22.5	73
CN1CCc2nc(NC(=O)c3cccc(CNC(=O)c4cccc(-c5cn[nH]c5)c4)c3)sc2C1 [compound 6]	2	0.53
Cc1nnnn1-c1ccc(C(=O)NCc2cccc(C(=O)Nc3nc4c(s3)CN(C)CC4)c2)cc1 [compound 8]	6	9.8
CN1CCc2nc(NC(=O)c3cccc(CNC(=O)c4csc(-c5cccnc5)n4)c3)sc2C1 [compound 14]	4.8	7.9
CN1CCc2nc(NC(=O)c3cccc(CNC(=O)c4csc(-c5ccncc5)n4)c3)sc2C1 [compound 22]	5.8	37
N[C@H]1CCc2nc(NC(=O)c3cccc(CNC(=O)c4ccc(-c5csnn5)cc4)c3)sc2C1 [compound 26]	7.6	40
CN1CCc2ccc(NC(=O)c3cccc(CNC(=O)c4csc(-c5cccnc5)n4)c3)cc2C1 [compound 27]	9.8	45
N[C@@H]1CCc2nc(NC(=O)c3cccc(CNC(=O)c4cccc(-c5cn[nH]c5)c4)c3)sc2C1 [compound 28]	1.1	0.45
N[C@H]1CCc2nc(NC(=O)c3cccc(CNC(=O)c4cccc(-c5cn[nH]c5)c4)c3)sc2C1 [compound 30]	0.72	0.16
Cc1nnnn1-c1ccc(C(=O)NCc2cccc(C(=O)Nc3nc4c(s3)C[C@H](N)CC4)c2)cc1 [compound 36]	1.4	3
Cc1nnnn1-c1ccc(C(=O)NCc2cccc(C(=O)Nc3nc4c(s3)C[C@@H](N)CC4)c2)cc1 [compound 38]	1.1	0.67
N[C@@H]1CCc2nc(NC(=O)c3cccc(CNC(=O)c4cccc(-c5cccnc5)c4)c3)sc2C1 [compound 40]	1.9	10
N[C@H]1CCc2nc(NC(=O)c3cccc(CNC(=O)c4cccc(-c5cccnc5)c4)c3)sc2C1 [compound 42]	1.2	2
Cc1c(C(=O)NCc2cccc(C(=O)Nc3nc4c(s3)CN(C)CC4)c2)nnn1-c1nonc1N [compound 44]	1.8	9.3
CN1CCc2nc(NC(=O)c3cccc(CNC(=O)c4nnn(-c5nonc5N)c4-c4ccccc4)c3)sc2C1 [compound 46]	1.8	4.9
Cc1sc(-c2ccncc2)nc1C(=O)NCc1cccc(C(=O)Nc2nc3c(s2)CN(C)CC3)c1 [compound 58]	2.1	1.2
CN1CCc2ccc(NC(=O)c3cccc(CNC(=O)c4ccc(-c5cnco5)s4)c3)cc2C1 [compound 64]	1.5	1
CN1CCc2nc(NC(=O)c3cccc(CNC(=O)c4cn5ccc(C#N)cc5n4)c3)sc2C1 [compound 66]	2.5	12
CN1CCc2nc(NC(=O)c3cccc(CNC(=O)c4cc(-c5ccncc5)n[nH]4)c3)sc2C1 [compound 74]	1.3	0.23
Cc1nc(-c2ccncc2)sc1C(=O)NCc1cccc(C(=O)Nc2nc3c(s2)CN(C)CC3)c1 [compound 76]	1.2	1.4
CN1CCc2nc(NC(=O)c3cccc(CNC(=O)c4cn5cc(C#N)ccc5n4)c3)sc2C1 [compound 88]	45.7	
CN1CCc2nc(NC(=O)c3cccc(CNC(=O)c4ccc(-c5cccnc5)s4)c3)sc2C1 [compound 110]	15.5	
Cc1ncc(-c2ccc(C(=O)NCc3cccc(C(=O)Nc4nc5c(s4)CN(C)CC5)c3)s2)o1 [compound 116]	14.5	
CN1CCc2ccc(NC(=O)c3cccc(CNC(=O)C4=NC5=CC=NC(=O)C5C=C4)c3)cc2C1 (centres unmarked) [compound 122]	27.5	

Further lines, results first:

IC50 (ROCKII (1-543) [1]) [nM]	IC50 (ROCKII (1-543) [2]) [nM]	Structure (SMILES)
4	5.1	CN1CCc2ccc(NC(=O)c3cccc(CNC(=O)c4cccc(-c5cn[nH]c5)c4)c3)cc2C1 [compound 3]
5.9	25	CN1CCc2ccc(NC(=O)c3cccc(CNC(=O)c4cn5cc(C(N)=O)ccc5n4)c3)cc2C1 [compound 21]
2.6	2	CN1CCc2ccc(NC(=O)c3cccc(CNC(=O)c4ccc5cc(O)ccc5c4)c3)cc2C1 [compound 29]
4.6	4.6	CN1CCc2ccc(NC(=O)c3cccc(CNC(=O)c4ccc(C5=CSNN5)cc4)c3)cc2C1 [compound 31]
4.9	9.9	CN1CCc2ccc(NC(=O)c3cccc(CNC(=O)c4ccc(-n5ccnc5)cc4)c3)cc2C1 [compound 39]
2.6	26	CN1CCc2ccc(NC(=O)c3cccc(CNC(=O)c4ccc(-c5cnco5)cc4)c3)cc2C1 [compound 49]
2.9	11	CN1CCc2ccc(NC(=O)c3cccc(CNC(=O)c4cn5ccc(C(N)=O)cc5n4)c3)cc2C1 [compound 50, imidazo[1,2-a]pyridine-2,7-dicarboxylic acid 7-amide 2-[3-(2-methyl-1,2,3,4-tetrahydro-isoquinolin-7-ylcarbamoyl)-benzylamide]]
2.2	8.1	CN1CCc2ccc(NC(=O)c3cccc(CNC(=O)c4cc5ccc(C#N)cc5[nH]4)c3)cc2C1 [compound 52]
1.3	0.45	CN1CCc2ccc(NC(=O)c3cccc(CNC(=O)c4cc5ccc(C(N)=O)cc5[nH]4)c3)cc2C1 [compound 54]
44.5		CN1CCc2ccc(NC(=O)c3cccc(CNC(=O)c4cccc(-c5ccncc5)c4)c3)cc2C1 [compound 69]
1.5	0.58	CN1CCc2ccc(NC(=O)c3cccc(CNC(=O)c4cc5cc(C#N)ccc5[nH]4)c3)cc2C1 [compound 80]
47		CCn1c(C(=O)NCc2cccc(C(=O)Nc3ccc4c(c3)CN(C)CC4)c2)cc2cc(C#N)ccc21 [compound 102]
24		CCn1c(C(=O)NCc2cccc(C(=O)Nc3ccc4c(c3)CN(C)CC4)c2)cc2ccc(C#N)cc21 [compound 118]
80		CN1CCc2ccc(NC(=O)c3cccc(CNC(=O)c4cc5cccc(O)c5cc4O)c3)cc2C1 [compound 133]
49.3		CN1CCc2ccc(NC(=O)c3cccc(CNC(=O)c4ccc(-c5nnco5)cc4)c3)cc2C1 [compound 145]
22.5		CN1CCc2ccc(NC(=O)c3cccc(CNC(=O)c4ccc5[nH]c(=O)ccc5c4)c3)cc2C1 [compound 175]
68		CN1CCc2ccc(NC(=O)c3cccc(CNC(=O)c4ccc(-c5ccc(N)nc5)s4)c3)cc2C1 [compound 177]
81		CN1CCc2ccc(NC(=O)c3cccc(CNC(=O)c4ccc5c(c4)OCC(=O)N5)c3)cc2C1 [compound 182]
18		CN1CCc2ccc(NC(=O)c3cccc(CNC(=O)c4ccc5c(c4)CCC(=O)N5)c3)cc2C1 [compound 184]
14.5		CN1CCc2ccc(NC(=O)c3cccc(CNC(=O)c4cccc(-n5ccnc5)c4)c3)cc2C1 [compound 186]
91.5		CN1CCc2ccc(NC(=O)c3cccc(CNC(=O)c4cc(-c5cccnc5)[nH]n4)c3)cc2C1 [compound 188]
38		Cc1nc2cnccc2n1-c1ccc(C(=O)NCc2cccc(C(=O)Nc3ccc4c(c3)CN(C)CC4)c2)cc1 [compound 198]
86		CCN1C(=O)CSc2ccc(C(=O)NCc3cccc(C(=O)Nc4ccc5c(c4)CN(C)CC5)c3)cc21 [compound 210]
